Experimental findings from US10344026B2, “Compositions and methods of targeting mutant K-ras” (NANTBIO, INC., priority 2017, dated 2019) are described below.

Common to all, as to assay type: cell-based
The subject of test [1] is Ishikawa (K-Ras wild type cell line). Briefly: Viability assay (CellTiterBlue, 72 hr) Ishikawa. The note with it: Homo sapiens, GI50, CellTiterBlue, Ishikawa K-Ras wild-type. A digest of the protocol: (§1)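 Each line was plated at 1000 cells per well and incubated for 72 hr with compound after an 18 hr settling period. CellTiterBlue fluorescence measured the result, and GI50 was fitted relative to DMSO and tamoxifen controls.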

Another test deals with Panc1-G12D. Kind of test: Viability assay (CellTiterBlue, 72 hr) Panc1. The note with it: Homo sapiens, PANC-1, GI50, CellTiterBlue, Panc1 K-Ras G12D, read-out: 72 hr Cell Viability Panc1 (G12D). A digest of the protocol: as §1
The subject of test [2] is HCC827 (K-Ras wild type cell line). Briefly: Viability assay (CellTiterBlue, 72 hr) HCC827. Conditions: Homo sapiens, GI50, CellTiterBlue, HCC827 K-Ras wild-type. The essentials:
as §1

The test system of test [3] is phospho-ERK in A375 (Wild-type). Briefly: In-Cell Western phospho-ERK, A375. Conditions: Homo sapiens, A-375, 1 h; A375, one hour treatment; read-out: In-Cell Western A375 (Wild-type) Erk (P). A digest of the protocol: (§2)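 In-cell immunofluorescence: after 1 h compound exposure (final DMSO 0.5%) of cells plated 18 h beforehand, fixed cells were probed overnight at 4 °C with phospho-Akt/phospho-ERK antibodies and imaged. Maximal inhibition defined by 1 uM MEK Inhibitor II for pERK, 1 uM BEZ235 for pAkt; EC50 calculated.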

Test [4] relates to phospho-Akt in Panc1 (G12D). Briefly: In-Cell Western phospho-Akt, Panc1. Conditions: Homo sapiens, PANC-1, 1 h; Panc1, one hour treatment; read-out: In-Cell Western Panc1 (G12D) Akt (P). A digest of the protocol:
as §2

The subject of test [5] is phospho-Akt in HCC827 (Wild-type). Kind of test: In-Cell Western phospho-Akt, HCC827. Conditions: Homo sapiens, 1 h; HCC827, one hour treatment; read-out: In-Cell Western HCC827 (Wild-type) Akt (P). The method, then:
In-cell phosphorylation assays for Erk and Akt were performed on several of the compounds and exemplary results are shown in Table 3 below using HCC827 and A375 cell lines for wild type K-Ras and Panc1 and Panc10.05 cell lines for G12D K-Ras mutants. Results are expressed in μM and corresponding structures are shown in FIGS. 2A-2G and Examples 1-152, above.
Cells are seeded in complete medium into black sided, clear-bottom 384-well microplates at 3000 cells/[…]/well. Plates are returned to 37° C. CO2 incubator for 18 hr. Drug is made as 200× in DMSO and diluted into medium to 10×. To each well is added 4 ul 10× test article or controls, and plates are returned to the incubator. Final assay DMSO concentration is 0.5%. After one hour, cells are fixed in formaldehyde, rinsed & permeabilized with triton X-100, and blocked with BSA/Goat serum blocking solution. Primary phospho-Akt and phospho-ERK antibodies are added and plates are incubated overnight at 4° C. Plates are rinsed with Tween-20 wash buffer and secondary antibody (Goat anti-rabbit, Thermofisher) is added. After 2 hours, plates are rinsed in Tween-20 wash buffer, and then PBS. Plates are imaged on the Celigo (Nexcelom) and cellular fluorescence is quantitated. Full inhibition of phospho-Akt is achieved with 1 uM BEZ235 (Sellekchem), while full inhibition of phospho-ERK is achieved with 1 uM MEK Inhibitor II Calbiochem). EC50 values are calculated using Graphpad Prism.

In test [6] the test system is phospho-ERK in HCC827 (Wild-type). Kind of test: In-Cell Western phospho-ERK, HCC827. Conditions: Homo sapiens, 1 h; HCC827, one hour treatment; read-out: In-Cell Western HCC827 (Wild-type) Erk (P). A digest of the protocol: as §2
In the next test the test system is Panc10.05-G12D. Kind of test: Viability assay (CellTiterBlue, 72 hr) Panc10.05. Conditions: Homo sapiens, Panc1005, GI50, CellTiterBlue, Panc10.05 K-Ras G12D, read-out: 72 hr Cell Viability Panc10.05 (G12D). A digest of the protocol: as §1
A general note: Resazurin is reduced to fluorescent resorufin, in cell work by metabolically active cells.

Test [7] has as its system A375 (K-Ras wild type cell line). Briefly: Viability assay (CellTiterBlue, 72 hr) A375. The note with it: Homo sapiens, A-375, GI50, CellTiterBlue. The essentials: as §1
The next test deals with HCT116-G31D. Briefly: Viability assay (CellTiterBlue, 72 hr) HCT116. Conditions: Homo sapiens, HCT-116, GI50, CellTiterBlue, HCT116 K-Ras G13D, read-out: 72 hr Cell Viability HCT116 (G13D). A digest of the protocol:
as §1

In test [8] the test system is U87-MG (K-Ras wild type cell line). Kind of test: Viability assay (CellTiterBlue, 72 hr) U87-MG. The note with it: Homo sapiens, U-87 MG, GI50, CellTiterBlue, U87-MG K-Ras wild-type. The essentials:
as §1

The target in the next test is T1, K-Ras G12D (Homo sapiens, UniProt P01116, G12D).
T1 construct: expressed in transfected cells; host or cells: 293H cells
Briefly: G-LISA Ras activation, 293H cells transfected with G12D mutant. The note with it: compound 1 hour. A digest of the protocol: (§3)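 Active Ras was quantified by G-LISA in lysates of 293H cells made the day after transfection with wild-type, G12D or G12V Ras plasmid (5 μg). Compounds were applied at 3.125-25 μM for 1 h; only the wild-type cells got a 2-min 100 ng/ml EGF pulse before lysis.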

Test [9] deals with phospho-ERK in Panc1 (G12D). Kind of test: In-Cell Western phospho-ERK, Panc1. The note with it: Homo sapiens, PANC-1, 1 h; Panc1, one hour treatment; read-out: In-Cell Western Panc1 (G12D) Erk (P). A digest of the protocol:
as §2

Test [10] deals with phospho-Akt in A375 (Wild-type). Briefly: In-Cell Western phospho-Akt, A375. The note with it: Homo sapiens, A-375, 1 h; A375, one hour treatment; read-out: In-Cell Western A375 (Wild-type) Akt (P). A digest of the protocol: as §2
The subject of test [11] is phospho-ERK in Panc10.05 (G12D). Briefly: In-Cell Western phospho-ERK, Panc10.05. Conditions: Homo sapiens, Panc1005, 1 h; Panc10.05, one hour treatment; read-out: In-Cell Western Panc10.05 (G12D) Erk (P). The essentials: as §2
The subject of test [12] is phospho-Akt in Panc10.05 (G12D). Kind of test: In-Cell Western phospho-Akt, Panc10.05. Conditions: Homo sapiens, Panc1005, 1 h; Panc10.05, one hour treatment; read-out: In-Cell Western Panc10.05 (G12D) Akt (P). A digest of the protocol:
as §2

A further test concerns the target T2, wild type K-Ras (Homo sapiens, UniProt P01116).
T2 construct: expressed in transfected cells; host or cells: 293H cells
Kind of test: G-LISA Ras activation, 293H cells transfected with Ras wild-type, EGF stimulated. Conditions: compound 1 hour, then 100 ng/ml EGF 2 minutes. The essentials:
as §3

Some results are limits rather than exact numbers.

T1 sequence (P01116 whole entry G12D): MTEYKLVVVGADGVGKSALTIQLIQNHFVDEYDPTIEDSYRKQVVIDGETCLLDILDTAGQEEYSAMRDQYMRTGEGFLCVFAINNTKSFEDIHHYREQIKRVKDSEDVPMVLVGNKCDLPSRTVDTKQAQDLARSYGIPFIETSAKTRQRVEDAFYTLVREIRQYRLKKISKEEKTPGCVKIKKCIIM
T2 sequence (P01116 whole entry): as the sequence (P01116 whole entry G12D) above, with D12G counted along it

For `COCCN1C(=O)CCc2cc(-c3csc(NC(=O)c4c(C)nn(C(C)C)c4C)n3)ccc21` [Compound 118, 1-isopropyl-N-(4-(1-(2-methoxyethyl)-2-oxo-1,2,3,4-tetrahydroquinolin-6-yl)thiazol-2-yl)-3,5-dimethyl-1H-pyrazole-4-carboxamide], the IC50 in [1] came to 4 µM; with Panc1-G12D, 2 µM; in test [2] it was 2 µM; in the test on Panc10.05-G12D it was 0.854 µM; in [7], 9 µM; in the test with HCT116-G31D, 18 µM. Moreover, the IC50 in test [8] was 8 µM; on K-Ras G12D it was 4.3 µM. Moreover, the EC50 in [3] is 10 µM; in [4], 26 µM; in [5], more than 25 µM; in test [6] it was 1.2 µM; in [9] it was 6 µM; in [10], 23 µM. Further, the EC50 in test [11] stood at 0.969 µM; in [12], 2 µM.

As for `Cc1nc(C)c(C(=O)Nc2nc(-c3ccc4c(c3)CCC(=O)N4Cc3cccnc3)cs2)o1` [Compound 70, 2,4-dimethyl-N-(4-(2-oxo-1-(pyridin-3-ylmethyl)-1,2,3,4-tetrahydroquinolin-6-yl)thiazol-2-yl)oxazole-5-carboxamide], the IC50 was 24 µM in [1]; 20 µM with Panc1-G12D; more than 25 µM in [2]; more than 25 µM at wild type K-Ras; 7 µM in the test with Panc10.05-G12D; more than 25 µM in the test on HCT116-G31D. On K-Ras G12D, this compound came in with an IC50 of 8.3 µM. Moreover, the EC50 in test [4] was 22 µM; in test [5], 19 µM; in [6] it was 22 µM; in [9] it was 10 µM; in test [11] it was 25 µM; in test [12], more than 25 µM.

In the case of `Cc1nc(C)c(C(=O)Nc2nc(-c3ccc4c(c3)CCC(=O)N4CC3CC3)cs2)o1` [Compound 68, N-(4-(1-(cyclopropylmethyl)-2-oxo-1,2,3,4-tetrahydroquinolin-6-yl)thiazol-2-yl)-2,4-dimethyloxazole-5-carboxamide], the IC50 came out at 3 µM in test [1]; 8 µM in the test with Panc1-G12D; 5 µM in [2]; 16.7 µM against wild type K-Ras; 3 µM in the test with Panc10.05-G12D; 5 µM with HCT116-G31D. The compound also came in with an IC50 at K-Ras G12D of 10.3 µM. The EC50 in test [4] stood at 4 µM; in test [5], 13 µM; in test [6] it was 6 µM; in test [9], 5 µM; in test [11], 7 µM; in test [12], 23 µM.

Consider `Cc1nc(C2CC2)oc1C(=O)Nc1nc(-c2ccc3c(c2)CCC(=O)N3Cc2cccnc2)cs1` [Compound 72, 2-cyclopropyl-4-methyl-N-(4-(2-oxo-1-(pyridin-3-ylmethyl)-1,2,3,4-tetrahydroquinolin-6-yl)thiazol-2-yl)oxazole-5-carboxamide], for which the IC50 was 2 µM in test [1]; 13 µM in the test on Panc1-G12D; more than 25 µM in test [2]; 8 µM at wild type K-Ras; 2 µM in the test on Panc10.05-G12D; more than 25 µM with HCT116-G31D. The IC50 at K-Ras G12D is 8 µM. The EC50 worked out at 2 µM in test [4]; 19 µM in [5]; 14 µM in test [6]; 3 µM in test [9]; 5 µM in [11]; 19 µM in test [12].

On to `CCc1cc(C(=O)Nc2nc(-c3ccc4c(c3)CCC(=O)N4)cs2)n(C)n1` [Compound 24, 3-ethyl-1-methyl-N-(4-(2-oxo-1,2,3,4-tetrahydroquinolin-6-yl)thiazol-2-yl)-1H-pyrazole-5-carboxamide], for which the IC50 in test [1] is more than 25 µM; in the test with Panc1-G12D, 0.672 µM; in test [2], more than 25 µM; against wild type K-Ras, 7.6 µM; with Panc10.05-G12D, 2.76 µM; in test [7] it was more than 25 µM. Further, the IC50 was more than 25 µM with HCT116-G31D, more than 25 µM in test [8] and 9.9 µM against K-Ras G12D. Besides, the EC50 in test [3], in test [4], in test [5], in [6], in [9] and in [11] was more than 25 µM throughout. The EC50 in test [12] is 13 µM.

As to `Cc1nc(C)c(C(=O)Nc2nc(-c3ccc4c(c3)CCC(=O)N4Cc3nnn[nH]3)cs2)o1` [Compound 109, N-(4-(1-((1H-tetrazol-5-yl)methyl)-2-oxo-1,2,3,4-tetrahydroquinolin-6-yl)thiazol-2-yl)-2,4-dimethyloxazole-5-carboxamide], the IC50 (in test [1]; with Panc1-G12D; in test [2]; in the test on Panc10.05-G12D; in test [7]; with HCT116-G31D) was more than 25 µM each time. In test [8], this compound came in with an IC50 of more than 25 µM. Also, the EC50 in [3], in test [4], in test [5], in [6], in test [9] and in test [10] was more than 25 µM in each case. Also, the EC50 in test [11] and in test [12] was more than 25 µM in each case.

Turning to `Cc1nc(C)c(C(=O)Nc2nc(-c3ccc4c(c3)CCC(=O)N4CC3CCOC3)cs2)o1` (centres unmarked) [Compound 67, 2,4-dimethyl-N-(4-(2-oxo-1-((tetrahydrofuran-3-yl)methyl)-1,2,3,4-tetrahydroquinolin-6-yl)thiazol-2-yl)oxazole-5-carboxamide], the IC50 in test [1] was 2 µM; with Panc1-G12D, 4 µM; in test [2] it was 3 µM; against wild type K-Ras it was more than 25 µM; with Panc10.05-G12D it was 2 µM; in the test with HCT116-G31D it was 2 µM. The IC50 against K-Ras G12D worked out at 8 µM. In addition, the EC50 in [5] was found to be 10 µM; in test [6] it was 4 µM; in test [9], 3 µM; in test [11], 6 µM; in test [12], 23 µM.
